Results on five substances are retold here after patent US10729742B2, “Screening method for the identification of agents capable of activating CD4+CD25+ regulatory T-cells through interactions with the HIV-1 GP120 binding site on CD4” (priority 2007, dated 2020).

In assay [1] the test system is CD4+CD25+ Treg cells. The assay can be described thus: Coculture suppression assay B: CD8+ T effector cell proliferation (3H-Tdr incorporation) with CD4+CD25+ Treg cells and syngenic T cell-depleted PBMC. Particulars: for proliferation of CD8+ T cells co-cultured with CD4+CD25+ Treg cells and inactivated syngenic CD3-depleted PBMC: FIG. 1 black bars, compared with CD8+ T cells without Tregs, 3H-Tdr incorporation 4 days later, effect dose-dependent; for proliferation of CD4+CD25+ Tregs: FIG. 1 white bars. It counts as cell-based, human. An excerpt:
In order to study the influence of a substance, e.g. HIV-1 gp120 which can bind at least to the epitope given in SEQ ID NO.:1 exclusively on the suppressive function of CD4^+CD25^+ Treg cells, we developed a co-culture assay which contained CD8^+ T cells as effectors to exclude any influence of this substance on the latter (CD8^+ T cells don't express CD4). […] To evaluate the influence of e.g. HIV-1 gp120 on the function of CD4^+CD25^+ Treg cells, isolated CD4^+CD25^+ Treg cells (2.1.4) are co-cultured with syngenic, T cell-depleted and irradiated (50 Gy) PBMC 2.1.6) and allogeneic CD8^+ T effector cells (2.1.3) in presence of varying concentrations (0.1-10 μg/ml) of different HIV-1 gp120 preparations. Briefly, 1×10^5 CD4^+CD25^+ Treg cells are incubated with 3×10^5 syngenic T cell-depleted PBMC in the presence or absence of varying amounts of HIV-1 gp120. Stimulation with 0.5 μg/ml anti-CD3 monoclonal antibody (OKT-3, ebioscience, USA) serves as positive control. No additional stimulation represents negative control. Either immediately or 24 h. later, 1×10^5 allogeneic CD8^+ T effector cells are added to the cultures and proliferation is determined after additional 72 h. by ^3H-Tdr incorporation (37 kBq/well). Functional activation of CD4^+CD25^+ Treg cells via interaction with the epitope as set forth in SEQ ID NO:1 result in suppressed proliferation of CD8^+ T effector cells and therewith identifies a substance as a Treg cell activator (Data see FIG. 1).
After 3-4 days of incubation of cells in assays provided under (2.2.1), (2.2.2) and (2.2.3) T cell proliferation is measured. For additional 16 h., cells are pulsed with ^3H-Tdr (37 kBq/well, MB Biomedicals), and incorporated radioactivity is measured by using a liquid scintillation counter (Betaplate, Wallac/PerkinElmer). In the absence of a Treg cell activating compound, resting Treg cells cannot inhibit the proliferation of CD4^+ T helper cells or CD8^+ T effector cells (negative control). In contrast, in presence of an activating CD4-binding compound or anti-CD3 monoclonal antibody (positive control) the proliferation of CD4^+ T helper cells or CD8^+ T effector cells is suppressed by CD4^+CD25^+ Treg cells. A reduced incorporated radioactivity resembles suppressed proliferation and identifies CD4^+ T helper cell or CD8^+ T effector cell inhibition and therewith identifies that a CD4^+CD25^+ Treg cell has been activated.
In order to study the influence of HIV-1 gp120 exclusively on the function of CD4^+CD25^+ Treg cells, we developed a coculture assay which contained CD8^+ T cells as effectors to exclude any influence of HIV-1 gp120 on the latter. Therefore, isolated CD4^+CD25^+ Treg cells are cocultured with T cell-depleted syngenic PBMC and allogeneic CD8^+ T effector cells. […] (All HIV-1 gp120 proteins: Protein Sciences Corp. Meriden, USA).
1×10^5 isolated CD25^+ Treg cells were incubated with 3×10^5 irradiated (50 Gy) syngenic T cell-depleted PBMC and 1×10^5 allogeneic CD8^+ T effector cells in presence/absence of different HIV-1 gp120 preparations, addition of 0.5 μg/ml anti-CD3 (OKT-3) served as positive control. Proliferation was determined by ^3H-Tdr-Incorporation 4 days later.
Grey bars represent proliferation of CD8^+ T cells and inactivated syngenic CD3-depleted PBMC, white bars represent the proliferation of CD4^+CD25^+ Tregs and the black bars represent the proliferation of CD8^+ T cells co-cultured with CD4^+CD25^+ Tregs cells and inactivated syngenic CD3-depleted PBMC. Due to inactivation PBMC don't contribute to proliferation of the samples.

Assay [2] has as its system NOD-Scid mice. The assay can be described thus: GVHD induced by transfer of human CD25-depleted PBMC into NOD-Scid mice; lack of weight increase/weight loss as score. Particulars: FIG. 5; 5 μg HIV gp120 injected together with CD25-depleted PBMC, intraperitoneal. It counts as in vivo. An excerpt: NOD-Scid mice at the age of three to six days after birth are intraperitoneally injected with 1×10^7 human CD25-depleted PBMC (isolation of human CD25-depleted PBMC according to 2.1.7). GVHD is induced by 1×10^7 human CD25-depleted PBMC at the same magnitude as by transfer of 1×10^7 human non CD25-depleted PBMC into NOD-Scid mice. […] Prevention of GVHD by HIV gp120 or a substance which can interfere with HIV-1 gp120-binding depends on regulatory T cells. Lack of weight increase/weight loss is used as a parameter to score GVHD severity. Data see FIG. 5.
Three to six days old NOD-Scid mice are intraperitoneally injected with 1×10^7 human CD25-depleted PBMC without (circles) or together with 5 μg HIV gp120 (triangles). […] Lack of weight increase/weight loss is used as a parameter to score GVHD severity.

The subject of assay [3] is CD4+CD25+ Treg cells. Briefly: Cytosolic cAMP measurement in CD4+CD25+ Treg cells (cAMP-specific ELISA). The format is cell-based, human. The settings on record: FIG. 2; 1 μg/ml, 16 hours of stimulation, 1×10^6 T cells. As for the experimental part: Stimulation of Treg cells results in strong increase of cytosolic (i.e. intracellular) cAMP. Therefore, the analysis of cAMP in Treg cells is an additional method to determine whether a substance which can interfere with HIV-1 gp120 binding to CD4 epitope of a CD4-positive cell can activate a Treg cell. In this assay freshly isolated CD4^+CD25^+ Treg cells (according to 2.1.4) (1×10^5-1×10^6/well) are incubated with anti-CD3 monoclonal antibody (OKT-3; 0.5 μg/ml) or HIV-1 gp120 (0.1-10 μg/ml; Protein Science Corp., Meriden, Conn., USA) or left untreated for 16 hours. To assess cytosolic cAMP-concentrations a cAMP-specific ELISA (Parameter™ Cyclic AMP Assay, Cat. No. KGE002; R&D Systems, Wiesbaden, Germany) is applied. […]
Activation of Treg cells by the test compound results directly in an increase of cytosolic cAMP. In the absence of a Treg cell activating compound no increase of cAMP in CD4^+CD25^+ Treg cells is detected (negative control). […]
CD4^+CD25^+ regulatory T cells (CD25) are left untreated (0) or stimulated with an anti-CD3 monoclonal Antibody (OKT-3; 1 μg/ml) or HIV-1 gp120 (1 μg/ml). Upon 16 hours of stimulation the CD4^+CD25^+ regulatory T cells are lysed (1×10^7/ml) and the cytosolic cAMP concentration of 1×10^6 T cells is assessed using a cAMP-specific ELISA. […]

Assay [4] deals with NOD-Scid mice. The assay can be described thus: GVHD induced by transfer of human PBMC into NOD-Scid mice; lack of weight increase/weight loss as score. It counts as in vivo. The settings on record: FIG. 4; 5 μg HIV gp120 injected together with PBMC, intraperitoneal, three to six days old mice. An excerpt:
NOD-Scid mice, non-obese diabetic/severe combined immunodeficient mice, (mutant allele: Prkdc^Scid strain: NOD.CB 17-Prkdc^Scid, (Shultz et al. 1995)) from the Central Laboratory Animal Facility of the University of Mainz (also purchasable from The Jackson Laboratory via Charles River Laboratories, Germany) are used as an animal model for transfer of peripheral human immune cells and thus for the in vivo analysis of immuno-regulatory interactions (Hesselton et al. 1995). Human peripheral blood mononuclear cells (PBMC) transferred into NOD-Scid mice induce an accelerating […] graft-versus-host disease (GVHD). While the number of cells transferred determines the onset of this disease, the co-transfer of human Tregs can gradually delay or prevent the disease. This model system further allows the study of human Treg function. To induce a GVHD NOD-Scid mice at the age of three to six days after birth are intraperitoneally injected with 1×10^7 to 3×10^7 human PBMC (isolation of human PBMC according to 2.1.1). GVHD is induced by immunological (xenogenic) activation of human effector T cells in the PBMC fraction injected into the mice. NOD-Scid mice, however, are not able to react against the grafted human PBMC. […]

As to “HIV-1 gp120 CM: HIV-1 gp120 preparation CM, Protein Sciences Corp. Meriden, USA”, in the assay with CD4+CD25+ Treg cells [1], the “proliferation of CD8+ T cells co-cultured with CD4+CD25+ Treg cells and inactivated syngenic CD3-depleted PBMC” value was “reduced proliferation”. In addition, in the assay on CD4+CD25+ Treg cells [1] (3H-Tdr incorporation), the “proliferation of CD4+CD25+ Tregs” value is recorded as “don't show a significant proliferation”.

As to “HIV-1 gp120 LAV: HIV-1 gp120 preparation LAV, Protein Sciences Corp. Meriden, USA”, the “proliferation of CD8+ T cells co-cultured with CD4+CD25+ Treg cells and inactivated syngenic CD3-depleted PBMC” value with CD4+CD25+ Treg cells [1] is “reduced proliferation”. The “proliferation of CD4+CD25+ Tregs” value with CD4+CD25+ Treg cells [1] (3H-Tdr incorporation) is reported as “don't show a significant proliferation”.

As to “HIV-1 gp120 MN: HIV-1 gp120 preparation MN, Protein Sciences Corp. Meriden, USA”, the “proliferation of CD8+ T cells co-cultured with CD4+CD25+ Treg cells and inactivated syngenic CD3-depleted PBMC” value with CD4+CD25+ Treg cells [1] is reported as “reduced proliferation”. Moreover, the “proliferation of CD4+CD25+ Tregs” value in the assay with CD4+CD25+ Treg cells [1] (3H-Tdr incorporation) is reported as “don't show a significant proliferation”.

On to “HIV-1 gp120: human immune deficiency virus 1 (HIV-1) glycoprotein gp120, binds CD4; Protein Sciences Corp.”, for which, in the assay with NOD-Scid mice [2], the “development of GVHD (relative body weight) after transfer of 1×10^7 human CD25-depleted PBMC” value is given as “not protected from development of GVHD”. Moreover, the “cytosolic (intracellular) cAMP in Treg cells compared to untreated control” value with CD4+CD25+ Treg cells [3] was “increase of intracellular cAMP”. The “development of GVHD (relative body weight) after transfer of 1×10^7 human PBMC” value with NOD-Scid mice [4] is recorded as “protected from development of GVHD”.

“anti-CD3: anti-CD3 monoclonal antibody (OKT-3, ebioscience, USA), positive control [reference compound]”: the “cytosolic (intracellular) cAMP in Treg cells compared to untreated control” value with CD4+CD25+ Treg cells [3] is listed as “increase of intracellular cAMP”. Moreover, the “proliferation of CD8+ T cells co-cultured with CD4+CD25+ Treg cells and inactivated syngenic CD3-depleted PBMC” value in the assay on CD4+CD25+ Treg cells [1] is recorded as “reduced proliferation”. For the same substance, the “proliferation of CD8+ T cells and inactivated syngenic CD3-depleted PBMC, without Tregs” value in the assay with CD4+CD25+ Treg cells [1] (FIG. 1 grey bars, 3H-Tdr incorporation) is on record as “strong increased proliferation”. Besides, the “proliferation of CD4+CD25+ Tregs” value in the assay on CD4+CD25+ Treg cells [1] (3H-Tdr incorporation) is “don't show a significant proliferation”.
